In ChEMBL document CHEMBL5729160, “Lysophosphatidic acid receptor 1 (LPAR1) inhibitor compounds” (2022) one finds IC50 data, which are given here for 1 compound.

Molecules are shown by their SMILES.

In assay [1] the target is Lysophosphatidic acid receptor 1 (Homo sapiens, UniProt Q92633). The experiment in a line: LPAR1 Calcium Flux Assays: A cDNA encoding the human LPAR1 receptor is synthesized and cloned into pDNA3 expression plasmid. The plasmid is transfected in U937 cells using Lipofectamine 2000 (Invitrogen Corp., USA). Clones stably expressing human LPAR1 are selected using […] and identified as cells that show Ca-influx in response to LPA.U937 cells overexpressing human LPAR1 are seeded at 100,000 cells per well in a 96-well fibronectin (10 ug/ml) coated plate in 60 μl of assay buffer (HBSS containing 20 mM HEPES and 0.2% BSA) and then incubated for 60 minutes. Then 50 μl of a calcium indicator dye (Fluo-4 NW, Molecular Probes) are added to each well and incubation continued for 30 minutes at 37° C. and then 30 minutes at room temperature. 50 μl of test compounds in 4% DMSO are added to the cells and incubation continued at room temperature for 40 minutes. Cells are the stimulated by the addition of 50 μl of 128 nM LPA and intracellular calcium is measured using the FLIPR TETRA (Molecular Devices). IC50 values are determined using “Genedata Screener” analysis tool. It counts as cell-based.
Chain of Lysophosphatidic acid receptor 1 (Q92633 whole entry): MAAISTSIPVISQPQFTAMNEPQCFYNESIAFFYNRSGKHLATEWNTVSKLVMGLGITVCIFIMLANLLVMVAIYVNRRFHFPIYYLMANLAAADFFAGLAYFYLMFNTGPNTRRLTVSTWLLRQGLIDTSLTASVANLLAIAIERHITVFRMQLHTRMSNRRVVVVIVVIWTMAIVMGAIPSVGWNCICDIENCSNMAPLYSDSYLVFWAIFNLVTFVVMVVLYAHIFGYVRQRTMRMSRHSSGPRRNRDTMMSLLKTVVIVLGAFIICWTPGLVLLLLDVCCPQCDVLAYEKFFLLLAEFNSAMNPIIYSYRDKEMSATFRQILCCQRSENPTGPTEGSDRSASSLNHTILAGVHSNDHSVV

Assay [2] deals with T1, Lysophosphatidic acid receptor 3 (Homo sapiens, UniProt Q9UBY5).
T1 sequence (Q9UBY5 whole entry): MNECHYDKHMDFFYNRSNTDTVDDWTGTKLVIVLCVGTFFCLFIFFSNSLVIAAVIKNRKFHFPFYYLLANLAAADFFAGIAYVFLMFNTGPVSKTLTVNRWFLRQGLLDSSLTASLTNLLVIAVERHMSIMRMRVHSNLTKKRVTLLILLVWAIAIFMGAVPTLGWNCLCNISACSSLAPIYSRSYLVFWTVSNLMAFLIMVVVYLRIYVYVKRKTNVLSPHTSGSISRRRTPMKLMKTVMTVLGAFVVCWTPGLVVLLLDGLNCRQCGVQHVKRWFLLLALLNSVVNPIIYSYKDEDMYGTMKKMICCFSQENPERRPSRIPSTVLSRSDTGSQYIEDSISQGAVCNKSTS
Put plainly: LPAR3 Calcium Flux Assays: A cDNA encoding the human LPAR3 receptor is synthesized and cloned into pDNA3 expression plasmid. The plasmid is transfected in U2OS cells using Lipofectamine 2000 (Invitrogen Corp., USA). Clones stably expressing human LPAR3 are selected using neomycin and identified as cells that show Ca-influx in response to LPA.U2OS cells overexpressing human LPAR3 are seeded at 20,000-40,000 cells per well in a 96-well poly-D-lysine coated plate one day before the assay. Prior to the assay, the cells are washed once with assay buffer (HBSS containing 20 mM HEPES and 0.2% BSA) and then incubated in 50 μl of assay buffer for 60 minutes. Then 50 μl of a calcium indicator dye (Fluo-4 NW, Molecular Probes) are added to each well and incubation is continued for 30 minutes at 37° C. and then 30 minutes at room temperature. 50 μl of test compounds in 4% DMSO are added to the cells and incubation continued at room temperature for 40 minutes. Cells are stimulated by the addition of 50 μl of 128 nM LPA and intracellular calcium is measured using the FLIPR TETRA (Molecular Devices). IC50 values are determined using “Genedata Screener” analysis tool. In kind it is cell-based.

On to `Cn1ncc(-c2ccc(-c3ccc(C4(C(=O)O)CC4)c(C(F)(F)F)c3)cn2)c1Nc1cncc(OC2CC2)n1`, for which the IC50 in assay [1] is 22 nM; in assay [2], > 10000 nM.
